Assay [1] has as its system ITK phosphorylation of its substrate, PLCγ1, at Y783. The assay can be described thus: ITK target modulation assay (phospho-Y783 PLCγ1 immunoblot in Jurkat T cells). The conditions noted are these: Homo sapiens, Jurkat, 2 h, 2 hours compound, CD3/CD28 Dynabeads stimulation 100 sec, anti-phospho-Y783 PLCγ1 immunoblot, read-out: PLC-γ Inhibition IC50. Type of assay: cell-based. As for the experimental part:
Target modulation was based upon the ability of a compound to inhibit ITK phosphorylation of its substrate, PLCγ1, at […]. Human Jurkat T cells were placed in snap-cap polypropylene tubes at 4 million per tube in 800 μL medium (RPMI1640 with 10% heat inactivated serum and […] 2-mercaptoethanol and supplemented with glutamine/penicillin/streptomycin). Compounds were added as 100 μL of 10× working stock solutions in medium with 1% DMSO (or medium with 1% DMSO for controls) and placed in a 37° C. incubator for 2 hours. Stimulation was carried out using CD3/CD28 Dynabeads to activate the T cell receptor and mimic antigen presenting cells. Beads were added for 100 sec at a ratio of 1 bead per cell, in 100 μL medium (or medium alone for unstimulated control). Starting at 70 sec, cells and beads were pelleted in a microfuge for 15 sec, the supernatant aspirated, and 50 μL lysis buffer was added per tube and mixed with the pellet at the 100 sec time point. Tubes were placed on a rotator for 30 min at 4° C., and cell debris was pelleted in a microfuge. Supernatant was mixed 1:1 with 2× Sample Buffer and subjected to SDS-polyacrylamide gel electrophoresis. After transfer to nitrocellulose, immunoblotting was done with anti-phospho-[…] PLCγ1 antibody. Immunoblots were visualized with ECL using horseradish peroxidase conjugated secondary antibody.
Background: In western blotting, separated proteins are transferred to a membrane and probed.

For another assay, the target named is T1, ITK (Homo sapiens, UniProt Q08881).
T1 sequence (Q08881 1-620): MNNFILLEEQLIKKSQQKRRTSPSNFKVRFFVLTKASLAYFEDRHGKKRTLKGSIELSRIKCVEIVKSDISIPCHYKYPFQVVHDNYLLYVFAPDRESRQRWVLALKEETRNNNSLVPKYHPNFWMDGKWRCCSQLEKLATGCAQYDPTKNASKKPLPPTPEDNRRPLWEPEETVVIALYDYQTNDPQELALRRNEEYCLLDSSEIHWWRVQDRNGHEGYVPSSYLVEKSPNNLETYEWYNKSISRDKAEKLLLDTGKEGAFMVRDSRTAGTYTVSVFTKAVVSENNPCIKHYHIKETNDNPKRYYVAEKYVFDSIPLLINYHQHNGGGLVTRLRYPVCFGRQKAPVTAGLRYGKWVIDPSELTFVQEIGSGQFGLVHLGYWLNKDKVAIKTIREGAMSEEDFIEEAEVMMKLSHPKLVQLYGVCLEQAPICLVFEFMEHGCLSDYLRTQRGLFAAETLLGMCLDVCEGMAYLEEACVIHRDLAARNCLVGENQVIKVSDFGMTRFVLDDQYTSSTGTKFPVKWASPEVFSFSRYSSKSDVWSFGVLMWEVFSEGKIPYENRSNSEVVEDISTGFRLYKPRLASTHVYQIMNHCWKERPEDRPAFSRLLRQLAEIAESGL
The assay can be described thus: ITK inhibitor binding potency (LanthaScreen competitive binding assay). The conditions noted are these: TR-FRET competitive binding, 10 nM ITK, 50 nM kinase tracer-236; pre-incubation condition not given; read-out: ITK Inhibition IC50. From the text: The ability of candidate compounds to interact with ITK is quantitated by a competitive binding assay using the LanthaScreen technology developed by Life Technologies. This assay is based on the binding of a proprietary, Alexa Fluor™ 647-labeled, ATP-competitive kinase inhibitor (kinase tracer-236) to the ITK expression construct in the presence of a Europium-conjugated antibody, resulting in a FRET (fluorescence resonance energy transfer) signal. Displacement of the kinase tracer by compound results in a lower emission ratio upon excitation of the Europium chelate. Candidate compounds are designed as potential irreversible inhibitors of ITK, capable of ligating to an active site cysteine residue resulting in time dependent covalent binding. The time dependent nature of irreversible inhibition is investigated by performing the binding assay with and without a pre-incubation of compound and ITK. […] The inhibitory potency of candidate compounds is measured in 20 mM HEPES pH 7.5, 10 mM MgCl2, 0.01% BSA, 0.0005% Tween-20, and 2% DMSO in the presence of 10 nM ITK, 2 nM Eu-anti-GST antibody, and 50 nM kinase tracer-236 using a 384-well plate format. Background signal is defined in the absence of ITK and uninhibited signal is defined in the presence of vehicle (2% DMSO) alone. Compounds were evaluated in an 11 point dose-response ranging from 20 uM to 0.34 nM. The binding assays are performed under two preincubation conditions to evaluate time dependence of inhibition. For the pre-incubation assay, ITK and Eu-anti-GST antibody are pre-incubated with compound or vehicle for two hours prior to the addition of kinase tracer. The non-preincubated assay is run under conditions where ITK and Eu-anti-GST antibody are added to a mixture of compound and kinase tracer. IC50 values of compounds are determined using a 4 parameter logistical fit of emission ratio as a function of the concentration of compound.
(In general: In TR-FRET formats the signal depends on donor and acceptor labels being close together.)

Some results are limits rather than exact numbers.

On to `CN(C)C/C=C/C(=O)Nc1cc(-c2cnc3[nH]cc(-c4cccc(C#N)c4)c3c2)cc(C(F)(F)F)c1` [Example 1, (E)-N-(3-(3-(3-Cyanophenyl)-1H-pyrrolo[2,3-b]pyridin-5-yl)-5-(trifluoromethyl)phenyl)-4-(dimethylamino)but-2-enamide], for which the IC50 is not above 1000 nM in assay [1] and not above 100 nM on ITK.
Take `C=CC(=O)N(C)c1cccc(-c2cnc3[nH]cc(-c4ccnc(OC)c4)c3c2)c1` [Example 2, N-(3-(3-(2-Methoxypyridin-4-yl)-1H-pyrrolo[2,3-b]pyridin-5-yl)phenyl)-N-methylacrylamide]: the IC50 in assay [1] was 1000 to 5000 nM; on ITK, not above 100 nM.
`C=CC(=O)Nc1cc(-c2cnc3[nH]cc(-c4ccnc(NC)n4)c3c2)cc(C(F)(F)F)c1` [Example 3, N-(3-(3-(2-(Methylamino)pyrimidin-4-yl)-1H-pyrrolo[2,3-b]pyridin-5-yl)-5-(trifluoromethyl)phenyl)acrylamide]: the IC50 in assay [1] was not above 1000 nM; at ITK it was not above 100 nM.
For `CN(C)C/C=C/C(=O)Nc1cncc(-c2cnc3[nH]cc(-c4ccnc(C#N)c4)c3c2)c1` [Example 4, (E)-N-(5-(3-(2-Cyanopyridin-4-yl)-1H-pyrrolo[2,3-b]pyridin-5-yl)pyridin-3-yl)-4-(dimethylamino)but-2-enamide] the same measures were not above 1000 nM and not above 100 nM.
For `C=CC(=O)Nc1cc(-c2cnc3[nH]cc(-c4cccc(C#N)c4)c3c2)cnc1OC1CCOC1` (centres unmarked) [Example 5, N-(5-(3-(3-Cyanophenyl)-1H-pyrrolo[2,3-b]pyridin-5-yl)-2-((tetrahydrofuran-3-yl)oxy)pyridin-3-yl)acrylamide] the same measures were 1000 to 5000 nM and not above 100 nM.
For `CN(C)C/C=C/C(=O)Nc1cccc(-c2cnc3[nH]cc(-c4cn(C)c(=O)c5[nH]ccc45)c3c2)c1` [Example 6, (E)-4-(dimethyl-amino)-N-(3-(3-(6-methyl-7-oxo-6,7-dihydro-1H-pyrrolo[2,3-c]-pyridin-4-yl)-1H-pyrrolo[2,3-b]-pyridin-5-yl)-phenyl)but-2-enamide] the same measures were more than 5000 nM and not above 100 nM.
As for `C=CC(=O)Nc1cc(-c2cnc3[nH]cc(-c4cccc(C#N)c4)c3c2)cc(C(F)(F)F)c1` [Example 7, N-(3-(3-(3-cyano-phenyl)-1H-pyrrolo[2,3-b]-pyridin-5-yl)-5-(trifluoromethyl)-phenyl)acrylamide], the IC50 (in assay [1]; at ITK) was not above 1000 nM each time.
As to `C=CC(=O)Nc1cccc(-c2cnc3[nH]cc(-c4cncc(C#N)c4)c3c2)c1` [Example 8, N-(3-(3-(5-cyano-pyridin-3-yl)-1H-pyrrolo[2,3-b]-pyridin-5-yl)-phenyl)acrylamide], the IC50 in assay [1] is 1000 to 5000 nM; at ITK, not above 100 nM.
For `C=CC(=O)Nc1cccc(-c2cnc3[nH]cc(-c4cncc(C(N)=O)c4)c3c2)c1` [Example 9, 5-(5-(3-acryl-amidophenyl)-1H-pyrrolo[2,3-b]-pyridin-3-yl)-nicotinamide], the IC50 in assay [1] was more than 5000 nM; on ITK, not above 100 nM.
Consider `CN(C)C/C=C/C(=O)Nc1cccc(-c2cnc3[nH]cc(-c4cncc(C(N)=O)c4)c3c2)c1` [Example 10, (E)-5-(5-(3-(4-(dimethylamino)-but-2-enamido)-phenyl)-1H-pyrrolo[2,3-b]-pyridin-3-yl)-nicotinamide], for which the IC50 was more than 5000 nM in assay [1] and not above 100 nM on ITK.
Turning to `CN(C)C/C=C/C(=O)Nc1cccc(-c2cnc3[nH]cc(-c4cncc(C#N)c4)c3c2)c1` [Example 11, (E)-N-(3-(3-(5-cyanopyridin-3-yl)-1H-pyrrolo-[2,3-b]pyridin-5-yl)phenyl)-4-(dimethylamino)-but-2-enamide], the values for the IC50 (in assay [1]; at ITK) were more than 5000 nM and not above 100 nM, respectively.
For the molecule `C=CC(=O)Nc1cc(-c2cnc3[nH]cc(-c4cncc(C#N)c4)c3c2)cc(C(F)(F)F)c1` [Example 12, N-(3-(3-(5-cyano-pyridin-3-yl)-1H-pyrrolo[2,3-b]-pyridin-5-yl)-5-(trifluoromethyl)-phenyl)acrylamide], the 50% inhibitory concentration (IC50) in assay [1] is not above 1000 nM; on ITK, not above 100 nM.
For the molecule `Cc1cc2c(-c3c[nH]c4ncc(-c5cc(NC(=O)/C=C/CN(C)C)cc(C(F)(F)F)c5)cc34)ccnc2[nH]1` [Example 14, (E)-4-(dimethyl-amino)-N-(3-(2′-methyl-1H,1′H-[3,4′-bipyrrolo-[2,3-b]pyridin]-5-yl)-5-(trifluoro-methyl)phenyl)-but-2-enamide], the values for the IC50 (in assay [1]; on ITK) were not above 1000 nM and not above 100 nM, respectively.
As to `C=CC(=O)Nc1cc(OC)cc(-c2cnc3[nH]cc(-c4ccnc5[nH]ccc45)c3c2)c1` [Example 15, N-(3-(1H,1′H-[3,4′-bipyrrolo-[2,3-b]pyridin]-5-yl)-5-methoxy-phenyl)acrylamide], the IC50 was not above 1000 nM in assay [1] and not above 100 nM on ITK.
In the case of `C=CC(=O)Nc1cc(OC)cc(-c2cnc3[nH]cc(-c4cccc(C#N)c4)c3c2)c1` [Example 16, N-(3-(3-(3-cyano-phenyl)-1H-pyrrolo[2,3-b]-pyridin-5-yl)-5-methoxyphenyl)-acrylamide], the values for the half-maximal inhibitory concentration (IC50) (in assay [1]; on ITK) were not above 1000 nM and not above 100 nM, respectively.
Regarding `C=CC(=O)Nc1cncc(-c2cnc3[nH]cc(-c4ccnc(OC)c4)c3c2)c1` [Example 17, N-(5-(3-(2-methoxypyridin-4-yl)-1H-pyrrolo-[2,3-b]pyridin-5-yl)pyridin-3-yl)-acrylamide], the results for the IC50 (in assay [1]; at ITK) were not above 1000 nM and not above 100 nM, respectively.
On to `C=CC(=O)Nc1cc(-c2cnc3[nH]cc(-c4cccc(C#N)c4)c3c2)cc(-c2cnn(C)c2)c1` [Example 18, N-(3-(3-(3-cyano-phenyl)-1H-pyrrolo[2,3-b]-pyridin-5-yl)-5-(1-methyl-1H-pyrazol-4-yl)-phenyl)acrylamide], for which the figures for the IC50 (in assay [1]; on ITK) were not above 1000 nM and not above 100 nM, respectively.
In the case of `COc1cc(-c2c[nH]c3ncc(-c4cncc(N(C)C(=O)/C=C/CN(C)C)c4)cc23)ccn1` [Example 73, (E)-4-(dimethyl-amino)-N-(5-(3-(2-methoxypyridin-4-yl)-1H-pyrrolo-[2,3-b]pyridin-5-yl)pyridin-3-yl)-N-methylbut-2-enamide], the half-inhibitory concentration (IC50) in assay [1] is not above 1000 nM.
Consider `CN(C)C/C=C/C(=O)N(C)c1cncc(-c2cnc3[nH]cc(-c4ccnc(F)c4)c3c2)c1` [Example 74, (E)-4-(dimethyl-amino)-N-(5-(3-(2-fluoropyridin-4-yl)-1H-pyrrolo-[2,3-b]pyridin-5-yl)pyridin-3-yl)-N-methylbut-2-enamide], for which, in assay [1], the half-maximal inhibitory concentration (IC50) is not above 1000 nM.
On to `C=CC(=O)Nc1cc(C)cc(-c2cnc3[nH]cc(-c4cccc(C#N)c4)c3c2)c1` [Example 75, N-(3-(3-(3-cyano-phenyl)-1H-pyrrolo[2,3-b]-pyridin-5-yl)-5-methylphenyl)-acrylamide], for which, in assay [1], the IC50 was in the range of 1000 to 5000 nM.
Take `Cc1cc(NC(=O)/C=C/CN(C)C)cc(-c2cnc3[nH]cc(-c4cccc(C#N)c4)c3c2)c1` [Example 76, (E)-N-(3-(3-(3-cyanophenyl)-1H-pyrrolo[2,3-b]-pyridin-5-yl)-5-methylphenyl)-4-(dimethyl-amino)but-2-enamide]: the IC50 in assay [1] lay in the range of 1000 to 5000 nM.

For orientation: IC50 means the midpoint of a concentration-inhibition curve.

Source of the values: patent publication US10316038B2, “Pyrrolopyrimidine ITK inhibitors for treating inflammation and cancer” (ACLARIS THERAPEUTICS, INC., priority 2017, dated 2019).
